Experimental data as given in PMC5156323 (Journal of natural products, 2015).

What was measured:
Format in all cases: cell-based
[1] = test system: proinflammatory cytokine production in induced THP-1 cells; assay: induced THP-1; conditions: at 10 μM
[2] = test system: IL-1β production in induced THP-1 cells; assay: induced THP-1; conditions: abstract, no concentration given
[3] = test system: melanoma cell line LOX IMVI; assay: NCI-DTP 60, LOX IMVI; conditions: Homo sapiens, read-out: IC50 (cytotoxic)
leukemia cell line SR = assay: NCI-DTP 60, SR; conditions: read-out: IC50 (cytotoxic)
[4] = test system: interleukin 6 (IL-6) production in induced THP-1 cells; assay: induced THP-1
[5] = test system: tumor necrosis factor-alpha (TNF-α) production in induced THP-1 cells; assay: induced THP-1; conditions: abstract, no concentration given
[6] = test system: IL-33 production in induced THP-1 cells; assay: induced THP-1; conditions: at 10 μM; THP-1 cells induced with LPS and TiO2

| SMILES | effect on proinflammatory cytokine production [1] | IL-1β production in the induced inflammasome assay [2] | IC50 [3] [µM] | IC50 (leukemia cell line SR) [µM] | IL-6 production in the induced inflammasome assay ([4]; abstract, no concentration given) | inhibition of production of interleukin 6 (IL-6) ([4]; at 10 μM, THP-1 cells induced with LPS and TiO2) | TNFα production in the induced inflammasome assay [5] | inhibition of production of IL-33 [6] |
| --- | --- | --- | --- | --- | --- | --- | --- | --- |
| CCCCCCCCCC(=O)[C@@H]1C(=O)O[C@@]2(C)C(=O)C=C3C=C(C[C@H](C)O)OC=C3[C@@H]12 [Compound 1, berkchaetoazaphilone A] | no effect | – | – | – | – | – | – | – |
| CCCCCCCCCC(=O)[C@@]12O[C@@]13C1=COC(C[C@H](C)O)=CC1=CC(=O)[C@]3(C)OC2=O [Compound 2, berkchaetoazaphilone B] | – | inhibited | 10 | 10 | inhibited | completely inhibited | inhibited | completely inhibited |
